# Reference: patent publication US7790687B2, “Treatment for neurodegeneration” (Proximagen Ltd., priority 2005, dated 2010)
# “Also recorded” adds a separate entry of the source.
# What was measured:
# [1] = test system: TH positive cells in the rat SN; experiment: Intranigral LPS injection, TH immunoreactive cell number in the SN; format: in vivo; settings: compared to contralateral intact SN and to saline controls, present at 24, 48, 72 and 120 hrs
# Description: (§1) Male Wistar rats (250-280 g) were obtained from Tuck (Essex, UK) and were kept on a 12 hour light/dark cycle at 21-24° C. with 55-65% humidity with unrestricted access to rat chow and water. All experiments were conducted according to the guidelines set out in the UK Animals (Scientific Procedures) Act 1986 and approved by the King's College London Ethics Committee.
# (§2) Animals were randomly divided into 4 groups (n=16 in each group) anaesthetised with halothane (4% in 5%O2:95%CO2), placed in a stereotaxic frame (Kopf Instruments) with the incisor bar set at −3.3 mm and anaesthesia maintained using halothane (1.5-2%). The heads were shaved, scalp cut, skull exposed and a burr hole drilled on the left side of the skull. The following co-ordinates for the SN were used: AP: −4.8 mm, L: +2.0 mm, V: +8.0 mm (Paxinos & Watson, 1986). A 10 μl Hamilton syringe was used and 2 μl of LPS (n=8) (5 mg/ml dissolved in 0.9% sterile saline: E. coli 055:B5; Calbiochem, Nottingham, UK) or 2 μl of vehicle (0.9% sterile saline; n=8) was delivered over a period of 2 minutes. The needle was left in situ for a further 2 minutes before being slowly withdrawn. The wound was closed using Ethicon sutures and the animals allowed to recover from anaesthesia until freely moving before being returned to their home cages. […]
# [2] = test system: OPN immunoreactivity in the rat SN; experiment: Intranigral LPS injection, OPN immunoreactivity in the SN; format: in vivo; settings: compared to saline treated animals
# Description: as §1, §2
# [3] = test system: TH positive cells in primary ventral mesencephalic cell cultures; experiment: MPP+ dose response on TH positive cell number in primary ventral mesencephalic cell cultures; format: cell-based, rat; settings: 24 hrs MPP+ exposure, 0.1-10 μM, n=3; read-out: EC50, dopaminergic (TH positive) cell death
# Description: (§3) Primary ventral mesencephalic cell cultures: Primary cell cultures were prepared by dissecting out the ventral mesencephalon from E14 rat foetuses. The dissected tissue was pooled and incubated with 0.1% Trypsin solution. This solution was then removed and replaced with Dulbecco's modified Eagles medium (DMEM) containing 10% foetal bovine serum (FBS) and 0.25% penicillin-streptomycin-neomycin (PSN), and the tissue centrifuged for 1 minute at 200 rpm at room temperature. The supernatant was then removed, fresh medium was added and the tissue mechanically dissociated using increasing fine bore fire-polished Pasteur pipettes. Cell density was assessed using a haematocytometer and cells were plated in culture medium containing 10% FBS and 0.25% PSN at a density of 1-1.5×10^5 on sterile coverslips coated with 0.01 % poly-D-lysine. After 4 days the culture medium was removed and replaced with fresh serum free DMEM prior to treatment with MPP+ or OPN. […]
# MPP+ dose response: MPP+ was dissolved in sterile PBS and the primary cell cultures were incubated for 24 hrs with one of the following concentrations of MPP+: 0.1, 0.5, 1, 2, 5, 10 μM MPP+ or vehicle (PBS). […] An EC50 was calculated (3.076±0.56) and a high (10 μM) or low (2 μM) MPP+ concentration was used to investigate the role of OPN in dopaminergic cell survival. […]
# [4] = test system: TH positive cells in primary ventral mesencephalic cultures; experiment: Survival of TH positive cells in primary ventral mesencephalic cultures without MPP+ treatment; format: cell-based, rat; settings: 24 hrs incubation, no MPP+ (no toxin), n=3
# Description: as §3
# (§4) Tyrosine hydroxylase (TH) immunohistochemistry: The culture medium was removed from the cells and the coverslips were fixed in 4% paraformaldehyde prior to peroxidase detection of TH using the ABC immunohistochemical method. Coverslips were mounted and examined using a Zeiss Axiophot microscope at a 50× magnification and the number of TH positive cells on each coverslip was manually counted in four fields chosen at random.(total area: 8 mm^2).
# [5] = test system: TH positive cells in primary ventral mesencephalic cultures; experiment: Survival of TH positive cells in primary ventral mesencephalic cultures, pre-treatment followed by MPP+; format: cell-based, rat; settings: for effect on survival/death of TH positive cells: 24 hrs pre-treatment, n=3; for concentration of maximal efficacy (TH cell survival): lowest concentration used
# Description: Primary ventral mesencephalic cell cultures: Primary cell cultures were prepared by dissecting out the ventral mesencephalon from E14 rat foetuses. The dissected tissue was pooled and incubated with 0.1% Trypsin solution. This solution was then removed and replaced with Dulbecco's modified Eagles medium (DMEM) containing 10% foetal bovine serum (FBS) and 0.25% penicillin-streptomycin-neomycin (PSN), and the tissue centrifuged for 1 minute at 200 rpm at room temperature. The supernatant was then removed, fresh medium was added and the tissue mechanically dissociated using increasing fine bore fire-polished Pasteur pipettes. Cell density was assessed using a haematocytometer and cells were plated in culture medium containing 10% FBS and 0.25% PSN at a density of 1-1.5×10^5 on sterile coverslips coated with 0.01 % poly-D-lysine. After 4 days the culture medium was removed and replaced with fresh serum free DMEM prior to treatment with MPP+ or OPN. Each treatment was done in triplicate per experiment and each series of experiments was repeated a further 2 times to give a final n=3.
# Manipulation of the OPN system: Cultures were incubated with one of the following treatments for 24 hrs prior to MPP+ administration (either 10 μM or 2 μM MPP+): OPN protein (1, 5, 10, 25, 50 & 100 ng/ml), anti-OPN antibody (26.5, 53, 265, 530 ng/ml and 1.325, 2.65 μg/ml), anti-αv or anti-β3 integrin receptor subunit antibody (0.02, 0.04, 0.2, 0.4, 1 & 2 μg/ml). Control groups received no MPP+ treatment.
# as §4
compound,measurement,setting,value
lipopolysaccharide [LPS],decrease in TH positive cells in the LPS injected SN,[1],70%
same,increase in OPN immunoreactivity,[2],14 fold
C[n+]1ccc(-c2ccccc2)cc1 [MPP+],EC50,[3],3.08 ± 0.56 µM
OPN protein fragment: 15 amino acid fragment of rat osteopontin containing the RGD αvβ3 integrin binding site and the α4 and α9 integrin subunit binding sites (TVDVPDGRGDSLAYG; listed as Rattus norvegicus),effect on viability of TH positive cells,[4],not found to affect the viability; also recorded: no effect
same,effect on survival/death of TH positive cells,[5]; then 2 μM MPP+ for 24 hrs,almost completely protected dopaminergic cells; also recorded: increased TH cell survival
same,effect on survival/death of TH positive cells,[5]; then 10 μM MPP+ for 24 hrs,almost completely protected dopaminergic cells; also recorded: increased survival of TH positive cells
same,concentration of maximal efficacy (TH cell survival),[5]; then 2 μM MPP+,1 ng/mL
same,concentration of maximal efficacy (TH cell survival),[5]; then 10 μM MPP+,1 ng/mL
